How the values were obtained:
[1] = system: HCT-116 (colorectal cancer); assay: Tumor cytotoxicity assay (MTT), HCT-116; assay type: cell-based; details: Homo sapiens, HCT-116, 72 hours
Description: (§1) First, the compounds were prepared in 100% dimethyl sulfoxide (DMSO) at concentrations of 0.02 μM to 200 μM, and then diluted in the culture medium so that the final concentration of DMSO might reach 0.5%, and treated with the drugs. The final concentration range of the compounds was 0.1 nM to 1000 nM. After that, they were further incubated for 72 hours under conditions of 37° C. and CO2 5%. […] The cell viability (%) was relatively determined by subtracting the reference 650 nm optical density (O.D.) from the 570 nm O.D., and the 0.5% DMSO-treated control was set as 100% as the standard.

[2] = biological target: T1, Recombinant NAMPT protein (Homo sapiens, UniProt P43490); assay: NAMPT enzyme inhibition assay (BPS Bioscience NAMPT Inhibitor Screening Assay Kit); assay type: biochemical; details: 30 min pre-incubation, 2 h at 30° C., fluorescence
T1 construct: purchased BPS bioscience #7176-1
Description: Recombinant NAMPT protein was added to each well of a black 96-well plate, and dilution buffer was added to a blank well instead of NAMPT protein. A 5× concentrated compound solution was added and pre-incubated at room temperature (approximately 22° C.) for 30 minutes before the start of the reaction so that the compound and protein might bind before the enzyme reaction. At this time, the concentration of NAMPT protein was adjusted and used according to the enzyme activity of each protein lot within the final concentration range of 4-10 ng/μl, and the test compound was serially diluted at a ratio of 1:3 from 1000 nM to 1 nM, and experiments were conducted with n=2 for about seven concentrations. […] The NAMPT enzyme activity (%) was calculated by subtracting the measurement value of the blank well without NAMPT protein from the measurement value of all wells, and then taking the measurement value of the control well without the compound as 100%.

NCI-N87 (gastric cancer) = assay: Tumor cytotoxicity assay (MTT), NCI-N87; assay type: cell-based; details: Homo sapiens, NCI-N87, 72 hours
Description: as §1

HCT-116 cell lines = assay: Cellular NAD measurement assay (NAD/NADH-Glo); assay type: cell-based; details: Homo sapiens; HCT-116, 24 hours treatment, intracellular NAD+/NADH level
Description: With regard to HCT-116 cell lines, the decrease in intracellular NAD+ and NADH levels due to the inhibition of NAMPT enzyme activity by compounds was evaluated using NAD/NADH-Glo™ Assay (Promega, G9072) from Promega. The cells were incubated using DMEM (Gibco, 11995-065) medium containing 10% FBS. The HCT-116 cells were incubated for 24 hours after being distributed at a density of 2,500 cells per well in a 96-well plate, and were treated with the drugs using serum-free DMEM. First, the compounds were dissolved in 100% dimethyl sulfoxide (DMSO), and then diluted in the culture medium so that the final concentration of DMSO might reach 0.5%, and treated with the drugs. The final concentration range of the compounds was 0.1 nM to 100 nM. After that, they were further incubated for 24 hours under conditions of 37° C. and CO2 5%. To conduct the NAD/NADH-Glo™ Assay, the culture medium of drug-treated cells was removed, 50 μL of DPBS was treated per well, and left at room temperature for five minutes. The required amount of NAD/NADH-Glo™ Detection Reagent (Reconstituted Luciferin Detection Reagent 1 mL, Reductase 5 μL, Reductase Substrate 5 μL, NAD Cycling Enzyme 5 μL, NAD Cycling Substrate 25 μL) was prepared according to the manufacturer's manual and treated in an amount of 50 μL per well. After incubating for two minutes at 400 rpm in a plate shaker for cell lysis, the cells were incubated for 30 minutes at room temperature, and luminescence was measured. NAD+/NADH levels were calculated by subtracting the measurement value of the blank well without cells from the measurement value of all wells and taking the 0.5% DMSO-treated control as 100%.

T1 sequence (P43490 whole entry): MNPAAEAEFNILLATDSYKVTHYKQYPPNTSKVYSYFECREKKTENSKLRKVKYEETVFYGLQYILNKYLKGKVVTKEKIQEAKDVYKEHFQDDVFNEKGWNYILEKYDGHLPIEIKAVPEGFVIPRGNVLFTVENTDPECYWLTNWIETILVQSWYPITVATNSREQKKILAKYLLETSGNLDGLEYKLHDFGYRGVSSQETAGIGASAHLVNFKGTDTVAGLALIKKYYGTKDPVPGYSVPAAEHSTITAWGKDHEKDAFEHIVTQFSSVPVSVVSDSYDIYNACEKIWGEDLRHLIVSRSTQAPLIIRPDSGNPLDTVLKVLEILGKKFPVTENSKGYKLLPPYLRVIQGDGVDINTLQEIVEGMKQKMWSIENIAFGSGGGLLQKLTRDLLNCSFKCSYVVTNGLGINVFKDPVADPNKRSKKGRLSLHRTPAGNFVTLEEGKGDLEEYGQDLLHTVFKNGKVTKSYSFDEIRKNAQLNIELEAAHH

Row | IC50 [2] [nM] | IC50 (HCT-116 cell lines) [nM] | Compound | CC50 [1] [nM] | CC50 (NCI-N87 (gastric cancer)) [nM]
1 | < 500 | ≤ 10 | Cc1nc2cc(-c3ccc(NC(=O)NCCc4cccnc4)cc3C#Cc3ccc(F)cc3)ccc2c(=O)[nH]1 [Compound 14] | < 30 | < 30
2 | < 500 | 10 to 1000 | O=C(NCCc1cccnc1)Nc1ccc(-c2ccncc2)c(C#Cc2ccc(C(=O)NCCN3CCNCC3)cc2)c1 [Compound 47] | < 30 | 30 to 100
3 | < 500 | ≤ 10 | Cc1nc2cc(-c3ccc(NC(=O)NCCc4cccnc4)cc3C#Cc3ccc(F)cc3)ccc2c(=O)n1CCN [Compound 186] | < 30 | 30 to 100
4 | < 500 | ≤ 10 | O=C(NCc1ccn2ccnc2c1)Nc1ccc(-c2ccncc2)c(C#Cc2ccc(C3CCNCC3)cc2)c1 [Compound 187] | < 30 | < 30
